From US20200325518A1, “Systems and Methods for Metabolic Assessment Utilizing 1-Methoxy-PMS Field” (priority 2019, published 2020)
≈ marks a conversion by molar mass, not a printed value. Where two headings read alike, the source gives them in different places.

Assays:
E. coli = assay: CLSI overnight reference method MIC of antimicrobials against E. coli strains; type: cell-based; conditions: for MIC (CLSI Ref): unit assumed
P. aeruginosa = assay: Rapid AST by surface binding of europium probe with time resolved fluorescence; type: cell-based; conditions: Pseudomonas aeruginosa
Method: The x-axis of each graph denotes the concentrations of antimicrobial Amikacin (AMK) in micrograms/milliliter, and the y-axis denotes fluorescence from binding to bacteria surface. Growth check data measured by optical density (Absorbance at 600 nm) of the bacterial culture is denoted for each strain.
AST was performed by surface binding of probe followed by time resolved fluorescence. The P aeruginosa strains were incubated at 35° C. in shaking conditions for 4 hours for attaining growth, and growth check was performed by measuring absorbance of the culture at 600 nm after 4 hours of growth.

[1] = E. coli strain Clinical Sample 1
[2] = E. coli strain Clinical Sample 2
[3] = E. coli strain Clinical Sample 4
[4] = E. coli strain Clinical Sample 5
[5] = E. coli strain Clinical Sample 6
[6] = E. coli strain Clinical Sample 7
[7] = E. coli strain Clinical Sample 8
[8] = E. coli strain Clinical Sample 9
[9] = E. coli strain Clinical Sample 10
[10] = E. coli strain Clinical Sample 11
[11] = E. coli strain Clinical Sample 12
[12] = E. coli strain Clinical Sample 13

| SMILES | MIC (CLSI Ref) (E. coli; E. coli strain BEI 4.097) [µg/mL] | MIC (CLSI Ref) (E. coli; E. coli strain CDC Carba36) [µg/mL] | MIC (CLSI Ref) (E. coli; [1]) [µg/mL] | MIC (CLSI Ref) (E. coli; [2]) [µg/mL] | MIC (CLSI Ref) (E. coli; [3]) [µg/mL] | MIC (CLSI Ref) (E. coli; [4]) [µg/mL] | MIC (CLSI Ref) (E. coli; [5]) [µg/mL] | MIC (CLSI Ref) (E. coli; [6]) [µg/mL] | MIC (CLSI Ref) (E. coli; [7]) [µg/mL] | MIC (CLSI Ref) (E. coli; [8]) [µg/mL] | MIC (CLSI Ref) (E. coli; [9]) [µg/mL] | MIC (CLSI Ref) (E. coli; [10]) [µg/mL] | MIC (CLSI Ref) (E. coli; [11]) [µg/mL] | MIC (CLSI Ref) (E. coli; [12]) [µg/mL] | MIC (P. aeruginosa; P. aeruginosa Strain 1, growth check value 2.18, 4 hours growth, read-out: MIC) [µg/mL] | MIC (P. aeruginosa; P. aeruginosa Strain 2, growth checkpoint value 1.13, no reliable MIC data obtained, read-out: MIC expected) [µg/mL] | CLSI breakpoint interpretation (E. coli; [2]) |
| --- | --- | --- | --- | --- | --- | --- | --- | --- | --- | --- | --- | --- | --- | --- | --- | --- | --- |
| NCC[C@H](O)C(=O)N[C@@H]1C[C@H](N)[C@@H](O[C@H]2O[C@H](CN)[C@@H](O)[C@H](O)[C@H]2O)[C@H](O)[C@H]1O[C@H]1O[C@H](CO)[C@@H](O)[C@H](N)[C@H]1O [AMK, Amikacin] | 4 | 4 | 4 | 4 | 4 | 4 | 4 | 2 | 4 | 4 | 8 | 4 | 4 | 4 | 8 (≈ 13.7 µM) | 8 (≈ 13.7 µM) | – |
| CC1(C)S[C@@H]2[C@H](NC(=O)[C@H](N)c3ccccc3)C(=O)N2[C@H]1C(=O)O [AMP, Ampicillin] | 4 | > 32 | 4 | > 32 | > 32 | > 32 | 4 | > 32 | > 32 | > 32 | > 32 | 4 | 4 | > 32 | – | – | – |
| C[C@H]1[C@H](NC(=O)/C(=N\OC(C)(C)C(=O)O)c2csc(N)n2)C(=O)N1S(=O)(=O)O [ATM, Aztreonam] | < 0.25 | 8 | < 0.25 | 0.5 | < 0.25 | < 0.25 | < 0.25 | < 0.25 | 64 | 32 | < 0.25 | < 0.25 | < 0.25 | < 0.25 | – | – | – |
| CC(C)(O/N=C(\C(=O)N[C@@H]1C(=O)N2C(C(=O)[O-])=C(C[n+]3ccccc3)CS[C@H]12)c1csc(N)n1)C(=O)O [CAZ, Ceftazidime] | 0.25 | 4 | 0.25 | 2 | 0.25 | 0.25 | 0.12 | 0.25 | > 32 | > 32 | 0.12 | 0.25 | 0.12 | 0.12 | – | – | – |
| CO/N=C(\C(=O)N[C@@H]1C(=O)N2C(C(=O)O)=C(CSc3nc(=O)c(=O)[nH]n3C)CS[C@H]12)c1csc(N)n1 [CRO, Ceftriaxone] | < 0.12 | 1 | < 0.12 | 2 | < 0.12 | < 0.12 | < 0.12 | < 0.12 | 64 | > 64 | < 0.12 | < 0.12 | < 0.12 | < 0.12 | – | – | I |
| C[C@@H](O)[C@H]1C(=O)N2C(C(=O)O)=C(S[C@@H]3CN[C@H](C(=O)Nc4cccc(C(=O)O)c4)C3)[C@H](C)[C@H]12 [ERT, Ertapenem] | 0.008 | 0.12 | 0.008 | 0.015 | 0.008 | 0.008 | 0.008 | 0.008 | 0.25 | 0.12 | 0.008 | 0.008 | 0.008 | 0.016 | – | – | – |
| C[C@@H](O)[C@H]1C(=O)N2C(C(=O)O)=C(SCCN=CN)C[C@H]12 [IPM, Imipinem] | < 0.12 | < 0.12 | < 0.12 | < 0.12 | 0.25 | < 0.12 | < 0.12 | < 0.12 | 0.5 | < 0.12 | < 0.12 | 0.25 | < 0.12 | < 0.12 | – | – | – |
| C[C@H]1COc2c(N3CCN(C)CC3)c(F)cc3c(=O)c(C(=O)O)cn1c23 [LVX, Levofloxacin] | < 0.06 | > 8 | < 0.06 | < 0.06 | > 8 | > 8 | < 0.06 | < 0.06 | < 0.06 | > 8 | 8 | < 0.06 | 0.5 | < 0.06 | – | – | – |
